The text below walks through data of US9850283B2, “Macrocyclic inhibitors of the PD-1/PD-L1 and CD80(B7-1)/PD-L1 protein/protein interactions” (BRISTOL-MYERS SQUIBB COMPANY, priority 2013, dated 2017).

Positions of bridges follow the written chain, without caps; N, C: chain ends. Non-standard residues stand in square brackets, D forms with d. Residues, ends and D or L forms follow the SMILES beside them. Phe(4-CH2NH2) = NCc1ccc(C[C@H](N)C(=O)O)cc1; Bta = N[C@@H](Cc1csc2ccccc12)C(=O)O; NMeF = CN[C@@H](Cc1ccccc1)C(=O)O; NMeNle = CCCC[C@H](NC)C(=O)O; Sar = CNCC(=O)O Some results are limits rather than exact numbers.

One assay concerns the target T1, Human PD-L1/PD-1 (Homo sapiens, UniProt Q9NZQ7).
T1 construct: made in house; host or cells: HEK293T
Briefly: HTRF PD-1-Ig/PD-L1-His binding assay (human PD-L1). The following applies: cluster symbol; read-out: HTRF IC50 cluster. The method, boiled down:
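The time-resolved fluorescence signal comes from Eu-cryptate anti-Ig (1 nM) and APC anti-His (20 nM) antibodies bound to a PD-1-Ig/PD-L1-His complex. Both partners lack transmembrane regions.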

Assay [1] deals with T2, LK35.2-hPD-L1 cells / PE-labeled PD-1-Ig (Homo sapiens, UniProt Q9NZQ7).
T2 construct: expressed in transfected cells; host or cells: LK35.2 mouse B cell line
T2 sequence (Q9NZQ7 19-290): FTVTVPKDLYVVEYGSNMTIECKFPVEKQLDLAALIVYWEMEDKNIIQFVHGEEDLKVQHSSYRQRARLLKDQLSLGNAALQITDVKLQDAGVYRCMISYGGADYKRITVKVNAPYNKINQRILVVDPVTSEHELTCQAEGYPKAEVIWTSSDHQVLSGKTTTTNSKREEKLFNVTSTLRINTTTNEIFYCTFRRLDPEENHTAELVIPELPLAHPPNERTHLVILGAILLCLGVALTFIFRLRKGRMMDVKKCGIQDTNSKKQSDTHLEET
Description: LK35.2-hPD-L1 cell binding high-content screening assay. The format is cell-based. As to conditions: cluster symbol; cell line of CBA not given (LK35.2-hPD-L1 or 293T-hPD-L1); read-out: CBA IC50 cluster. The method, boiled down: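 Mouse LK35.2 B cells stably overexpressing human PD-L1 were cultured overnight in RPMI with 10% FCS, then given compound and PE-labeled human PD-1-Ig (1 nM final) for 1 h at 37 °C. After three dPBS washes, bound fluorescence was quantified by high-content imaging.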

T1 sequence (Q9NZQ7 with tags, fused parts or gaps): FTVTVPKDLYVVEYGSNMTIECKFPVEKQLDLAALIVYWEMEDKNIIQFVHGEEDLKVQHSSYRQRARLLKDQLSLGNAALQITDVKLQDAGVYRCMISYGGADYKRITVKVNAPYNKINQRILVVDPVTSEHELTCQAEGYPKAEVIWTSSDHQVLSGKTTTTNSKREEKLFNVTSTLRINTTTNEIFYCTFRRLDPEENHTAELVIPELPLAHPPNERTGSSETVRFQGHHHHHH

With `CCCC[C@H]1C(=O)N(C)CC(=O)N[C@@H](CC(=O)O)C(=O)N[C@@H](C(C)C)C(=O)N(C)[C@@H](Cc2ccccc2)C(=O)N[C@@H](Cc2ccc(O)cc2)C(=O)N(C)CC(=O)N[C@@H](Cc2c[nH]c3ccccc23)C(=O)N[C@H](C(=O)NCC(N)=O)CSCC(=O)N[C@@H](Cc2ccccc2)C(=O)N(C)[C@@H](Cc2ccccc2)C(=O)N1C` [Example 3055] (HELM PEPTIDE1{[O=C(C[*:3])[*:2]].F.[meF].[CCCC[C@@H](C(=O)[*:2])N(C)[*:1]].[Sar].D.V.[meF].Y.[Sar].W.C.G.[am]}$PEPTIDE1,PEPTIDE1,1:R3-12:R3$$$V2.0), the IC50 (as a rule, the concentration that inhibits the measured activity by half) on Human PD-L1/PD-1 was over 0.0305 µM; in assay [1], over 0.0743 µM.

Turning to `CCCC[C@H]1C(=O)N(C)CC(=O)N[C@@H](CC(=O)O)C(=O)N[C@@H](C(C)C)C(=O)N(C)[C@@H](Cc2ccccc2)C(=O)N[C@@H](Cc2ccc(O)cc2)C(=O)N(C)CC(=O)N[C@@H](Cc2c[nH]c3ccccc23)C(=O)N[C@@H](Cc2ccc(O)cc2)C(=O)N[C@@H](CC(C)C)C(=O)N[C@H](C(=O)NCC(N)=O)CSCC(=O)N[C@@H](Cc2ccccc2)C(=O)N(C)[C@@H](Cc2cnc[nH]2)C(=O)N1C` [Example 3056-A] (HELM PEPTIDE1{[O=C(C[*:3])[*:2]].F.[meH].[CCCC[C@@H](C(=O)[*:2])N(C)[*:1]].[Sar].D.V.[meF].Y.[Sar].W.Y.L.C.G.[am]}$PEPTIDE1,PEPTIDE1,1:R3-14:R3$$$V2.0), the values for the IC50 (at Human PD-L1/PD-1; in assay [1]) were over 0.0305 µM and over 0.0743 µM, respectively.

Regarding `CCCC[C@H]1C(=O)N(C)CC(=O)N[C@@H](CC(=O)O)C(=O)N[C@@H](C(C)C)C(=O)N(C)[C@@H](Cc2cnc[nH]2)C(=O)N[C@@H](Cc2ccc(O)cc2)C(=O)N(C)CC(=O)N[C@@H](Cc2c[nH]c3ccccc23)C(=O)N[C@@H](Cc2ccc(O)cc2)C(=O)N[C@@H](CC(C)C)C(=O)N[C@H](C(=O)NCC(N)=O)CSCC(=O)N[C@@H](Cc2ccccc2)C(=O)N(C)[C@@H](Cc2ccccc2)C(=O)N1C` [Example 3057] (HELM PEPTIDE1{[O=C(C[*:3])[*:2]].F.[meF].[CCCC[C@@H](C(=O)[*:2])N(C)[*:1]].[Sar].D.V.[meH].Y.[Sar].W.Y.L.C.G.[am]}$PEPTIDE1,PEPTIDE1,1:R3-14:R3$$$V2.0), the figures for the IC50 (at Human PD-L1/PD-1; in assay [1]) were over 0.0305 µM and over 0.0743 µM, respectively.

Turning to `CCCC[C@H]1C(=O)N(C)CC(=O)N[C@@H](CC(=O)O)C(=O)N[C@@H](C(C)C)C(=O)N(C)[C@@H](Cc2cnc[nH]2)C(=O)N[C@@H](Cc2ccc(O)cc2)C(=O)N(C)CC(=O)N[C@@H](Cc2c[nH]c3ccccc23)C(=O)N[C@@H](Cc2ccc(O)cc2)C(=O)N[C@@H](CC(C)C)C(=O)N[C@H](C(=O)NCC(N)=O)CSCC(=O)N[C@@H](Cc2ccccc2)C(=O)N(C)[C@@H](Cc2cnc[nH]2)C(=O)N1C` [Example 3058-A] (HELM PEPTIDE1{[O=C(C[*:3])[*:2]].F.[meH].[CCCC[C@@H](C(=O)[*:2])N(C)[*:1]].[Sar].D.V.[meH].Y.[Sar].W.Y.L.C.G.[am]}$PEPTIDE1,PEPTIDE1,1:R3-14:R3$$$V2.0), the IC50 was over 0.0305 µM at Human PD-L1/PD-1 and over 0.0743 µM in assay [1].

Turning to `CCCC[C@H]1C(=O)N(C)CC(=O)N[C@@H](CC(=O)O)C(=O)N[C@@H](C(C)C)C(=O)N(C)[C@@H](Cc2ccccc2)C(=O)N[C@@H](Cc2ccc(O)cc2)C(=O)N(C)CC(=O)N[C@@H](Cc2c[nH]c3ccccc23)C(=O)N[C@@H](Cc2ccc(O)cc2)C(=O)N[C@@H](CC(C)C)C(=O)N[C@H](C(=O)NCC(N)=O)CSCC(=O)N[C@@H](Cc2ccccc2)C(=O)N(C)[C@@H](Cc2ccc(O)cc2)C(=O)N1C` [Example 3059] (HELM PEPTIDE1{[O=C(C[*:3])[*:2]].F.[meY].[CCCC[C@@H](C(=O)[*:2])N(C)[*:1]].[Sar].D.V.[meF].Y.[Sar].W.Y.L.C.G.[am]}$PEPTIDE1,PEPTIDE1,1:R3-14:R3$$$V2.0), the IC50 on Human PD-L1/PD-1 was 0.00676 to 0.0303 µM; in assay [1], 0.00478 to 0.0729 µM.

In the case of `CC(C)C[C@@H]1NC(=O)[C@H](Cc2ccc(O)cc2)NC(=O)[C@H](Cc2c[nH]c3ccccc23)NC(=O)CN(C)C(=O)[C@H](Cc2ccc(O)cc2)NC(=O)[C@H](Cc2ccccc2)N(C)C(=O)[C@H](C(C)C)NC(=O)[C@H](CC(=O)O)NC(=O)CN(C)C(=O)[C@H](Cc2ccc(O)cc2)N(C)C(=O)[C@H](Cc2ccccc2)N(C)C(=O)[C@H](Cc2ccccc2)NC(=O)CSC[C@@H](C(=O)NCC(N)=O)NC1=O` [Example 3060-A] (HELM PEPTIDE1{[O=C(C[*:3])[*:2]].F.[meF].[meY].[Sar].D.V.[meF].Y.[Sar].W.Y.L.C.G.[am]}$PEPTIDE1,PEPTIDE1,1:R3-14:R3$$$V2.0), the IC50 on Human PD-L1/PD-1 is 0.00676 to 0.0303 µM; in assay [1], 0.00478 to 0.0729 µM.

Turning to `CC(C)C[C@@H]1NC(=O)[C@H](Cc2ccc(O)cc2)NC(=O)[C@H](Cc2c[nH]c3ccccc23)NC(=O)CN(C)C(=O)[C@H](Cc2ccc(O)cc2)NC(=O)[C@H](Cc2ccccc2)N(C)C(=O)[C@H](C(C)C)NC(=O)[C@H](CC(=O)O)NC(=O)CN(C)C(=O)[C@H](Cc2ccc(O)cc2)N(C)C(=O)[C@H](Cc2ccccc2)N(C)C(=O)[C@H](Cc2ccccc2)NC(=O)CSC[C@@H](C(=O)NCC(N)=O)NC1=O` [Example 3060-B] (HELM PEPTIDE1{[O=C(C[*:3])[*:2]].F.[meF].[meY].[Sar].D.V.[meF].Y.[Sar].W.Y.L.C.G.[am]}$PEPTIDE1,PEPTIDE1,1:R3-14:R3$$$V2.0), the figures for the IC50 (at Human PD-L1/PD-1; in assay [1]) were over 0.0305 µM and over 0.0743 µM, respectively.

As for `CC(C)C[C@@H]1NC(=O)[C@H](Cc2ccc(O)cc2)NC(=O)[C@H](Cc2c[nH]c3ccccc23)NC(=O)CN(C)C(=O)[C@H](Cc2ccc(O)cc2)NC(=O)[C@H](Cc2ccccc2)N(C)C(=O)[C@H](C(C)C)NC(=O)[C@H](CC(=O)O)NC(=O)CN(C)C(=O)[C@H](CCC(=O)O)N(C)C(=O)[C@H](Cc2ccccc2)N(C)C(=O)[C@H](Cc2ccccc2)NC(=O)CSC[C@@H](C(=O)NCC(N)=O)NC1=O` [Example 3061] (HELM PEPTIDE1{[O=C(C[*:3])[*:2]].F.[meF].[meE].[Sar].D.V.[meF].Y.[Sar].W.Y.L.C.G.[am]}$PEPTIDE1,PEPTIDE1,1:R3-14:R3$$$V2.0), the IC50 at Human PD-L1/PD-1 is 0.00676 to 0.0303 µM; in assay [1] it was over 0.0743 µM.

In the case of `CCCC[C@H]1C(=O)N(C)CC(=O)N[C@@H](CC(=O)O)C(=O)N[C@@H](C(C)C)C(=O)N(C)[C@@H](Cc2ccccc2)C(=O)N[C@@H](Cc2ccc(O)cc2)C(=O)N(C)CC(=O)N[C@@H](Cc2csc3ccccc23)C(=O)N[C@@H](Cc2ccc(O)cc2)C(=O)N[C@@H](CC(C)C)C(=O)N[C@H](C(=O)NCC(N)=O)CSCC(=O)N[C@@H](Cc2ccccc2)C(=O)N(C)[C@@H](Cc2ccccc2)C(=O)N1C` [Example 3062] ({CH2CO}-F[NMeF][NMeNle][Sar]DV[NMeF]Y[Sar][Bta]YLCG-NH2; thioether N-13), the results for the IC50 (at Human PD-L1/PD-1; in assay [1]) were 0.000385 to 0.00674 µM and 0.00478 to 0.0729 µM, respectively.

As for `CCCC[C@H]1C(=O)N(C)CC(=O)N[C@@H](CC(=O)O)C(=O)N[C@@H](C(C)C)C(=O)N(C)[C@@H](Cc2ccccc2)C(=O)N[C@@H](Cc2ccc(O)cc2)C(=O)N(C)CC(=O)N[C@@H](Cc2c[nH]c3ccccc23)C(=O)N[C@@H](Cc2ccc(O)cc2)C(=O)N[C@@H](CC(C)C)C(=O)N[C@H](C(=O)NCC(N)=O)CSCC(=O)N[C@@H](Cc2ccc(CN)cc2)C(=O)N(C)[C@@H](Cc2ccccc2)C(=O)N1C` [Example 3063] ({CH2CO}-[Phe(4-CH2NH2)][NMeF][NMeNle][Sar]DV[NMeF]Y[Sar]WYLCG-NH2; thioether N-13), the IC50 at Human PD-L1/PD-1 was over 0.0305 µM; in assay [1], over 0.0743 µM.
